For eight compounds, IC50, EC50 and AC50 results are on record in ChEMBL document CHEMBL1201862, “PubChem BioAssay data set” (2004).

Calls of active or inactive are those of the source.

Data set [1] is described as follows: M. tuberculosis H37Rv growth inhibitors, H37Rv strain (AID 1626). It is filed as functional.
Data set [2] is described as follows: HEK-293T cell viability reduction – luminescence, B-cell screen hits, cytotoxicity control for BCR NF-kB inhibitor project, dose response (AID 489021).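 Note: HEK-293T cells carrying an NF-kB luciferase reporter; cells exposed to compound for about 14 hours before viability readout.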 Format: functional, cell-based.
Data set [3] concerns the target Epstein-Barr nuclear antigen 1 (Epstein-Barr virus (strain B95-8) (HHV-4) (Human herpesvirus 4), UniProt P03211). The data set can be described thus: inhibition of EBV nuclear antigen 1 DNA binding – biochemical, fluorescence polarization, 1536-well, dose response (AID 2381).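 Note: fluorescence polarization of a Cy5 DNA probe bound by EBNA-1 protein.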 Details: species or system human gammaherpesvirus 4.
For data set [4], the target named is Lytic switch protein BZLF1 (Epstein-Barr virus (strain B95-8) (HHV-4) (Human herpesvirus 4), UniProt P03206). The data set can be described thus: inhibition of BZLF1 ZTA DNA binding – biochemical, fluorescence polarization, Epstein-Barr virus, 1536-well, counter-screen for EBNA-1 inhibitor project, dose response (AID 2377).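 Note: fluorescence polarization of Cy5-labelled ZRE DNA probe bound by purified Zta.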 Details: species or system human gammaherpesvirus 4.

The nature of data set [5]: mitochondrial function rescue without frataxin homolog – Friedreich's ataxia, plus single-dose screen, dose response (AID 1465).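 Note: yeast depleted of Yfh1p frataxin homolog grown on glycerol needing respiration; WST-1 tetrazolium dye reduction as measure of cellular dehydrogenase metabolic activity.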 It is filed as functional.
The nature of data set [6]: Luminescence Cell-Based Dose Retest to Confirm Inhibitors of Cancer Stem Cells. [Related pubchem assays (depositor defined):AID2717, AID2721]. Format: functional. Conditions: Homo sapiens.
The target of the next data set is Nonstructural protein 1 (Influenza A virus, UniProt Q194T2). It is filed as functional, Influenza A virus (A/California/07/2009(H1N1)).
A further data set deals with T1, Leucine aminopeptidase (Plasmodium falciparum 3D7, UniProt Q8IL11).
T1 sequence (Q8IL11 whole entry): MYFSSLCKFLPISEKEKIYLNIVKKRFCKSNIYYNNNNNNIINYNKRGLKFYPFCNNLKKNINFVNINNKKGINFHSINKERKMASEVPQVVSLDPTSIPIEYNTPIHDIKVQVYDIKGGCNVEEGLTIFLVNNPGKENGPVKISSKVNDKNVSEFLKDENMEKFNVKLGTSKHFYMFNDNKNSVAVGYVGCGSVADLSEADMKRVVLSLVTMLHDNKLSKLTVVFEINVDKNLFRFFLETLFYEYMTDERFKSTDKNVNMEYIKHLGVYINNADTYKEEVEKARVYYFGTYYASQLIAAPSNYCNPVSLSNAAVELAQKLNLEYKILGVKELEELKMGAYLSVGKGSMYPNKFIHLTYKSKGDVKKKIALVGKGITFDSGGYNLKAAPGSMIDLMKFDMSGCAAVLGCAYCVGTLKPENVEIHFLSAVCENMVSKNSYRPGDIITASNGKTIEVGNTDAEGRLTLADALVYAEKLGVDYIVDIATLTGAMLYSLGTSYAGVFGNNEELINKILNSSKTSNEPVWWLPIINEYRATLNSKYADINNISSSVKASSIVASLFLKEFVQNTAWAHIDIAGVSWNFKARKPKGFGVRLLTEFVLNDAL
The data set is described as follows: P. falciparum M17LAP inhibitors, primary screen, biochemical, fluorogenic H-Leu-NHMec substrate, 1536-well (AID 1619). It is filed as functional.

The target of data set [7] is T2, Mannose-6-phosphate isomerase (Homo sapiens, UniProt P34949).
T2 sequence (P34949 whole entry): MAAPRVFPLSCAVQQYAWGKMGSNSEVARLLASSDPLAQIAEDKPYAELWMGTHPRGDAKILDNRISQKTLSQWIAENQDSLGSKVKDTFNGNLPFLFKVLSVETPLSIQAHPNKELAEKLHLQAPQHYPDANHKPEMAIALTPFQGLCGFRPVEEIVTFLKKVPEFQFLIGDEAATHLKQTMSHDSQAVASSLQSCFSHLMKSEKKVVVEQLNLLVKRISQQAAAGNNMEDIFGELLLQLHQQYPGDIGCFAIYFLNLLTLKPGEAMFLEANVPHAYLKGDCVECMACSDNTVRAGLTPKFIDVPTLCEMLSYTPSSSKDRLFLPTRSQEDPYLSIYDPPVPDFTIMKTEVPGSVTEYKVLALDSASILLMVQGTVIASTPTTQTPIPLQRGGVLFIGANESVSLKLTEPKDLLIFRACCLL
The data set is described as follows: MPI enzyme activity inhibition – biochemical, fluorescence intensity, coupled assay, primary screen (AID 1209).

In another data set the target is Cytochrome P450 2C19 (Homo sapiens, UniProt P33261). The data set can be described thus: Cytochrome panel assay with activity outcomes. Panel member name: p450-cyp2c19 Compounds with AC50 equal or less than 10 uM are considered active. It is filed as functional. Conditions: read-out: AC50.
The target of a further data set is T3, Cytochrome P450 1A2 (Homo sapiens, UniProt P05177).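 Note: PubChem cytochrome P450 panel assay, CYP1A2 panel member.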
T3 sequence (P05177 whole entry): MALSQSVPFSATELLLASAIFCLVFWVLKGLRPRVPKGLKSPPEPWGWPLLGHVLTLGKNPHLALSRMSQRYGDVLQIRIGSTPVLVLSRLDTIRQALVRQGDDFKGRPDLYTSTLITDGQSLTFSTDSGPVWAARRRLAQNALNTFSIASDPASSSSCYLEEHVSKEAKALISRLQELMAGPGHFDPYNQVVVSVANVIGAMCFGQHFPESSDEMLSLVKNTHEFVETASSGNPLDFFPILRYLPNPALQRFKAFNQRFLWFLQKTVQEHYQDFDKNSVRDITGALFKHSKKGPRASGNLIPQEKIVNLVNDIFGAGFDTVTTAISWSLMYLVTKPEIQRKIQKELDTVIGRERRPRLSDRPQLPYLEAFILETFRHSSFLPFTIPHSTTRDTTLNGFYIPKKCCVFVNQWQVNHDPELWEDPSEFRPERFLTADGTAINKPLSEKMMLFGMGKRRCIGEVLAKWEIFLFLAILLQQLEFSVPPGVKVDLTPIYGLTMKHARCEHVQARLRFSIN

For a further data set, the target named is Cytochrome P450 3A4 (Homo sapiens, UniProt P08684).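 Note: CYP3A4 tested as one member of a cytochrome P450 panel screen.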
The next data set concerns the target Cytochrome P450 2C9 (Homo sapiens, UniProt P11712).
Data set [8] has as its target Glyceraldehyde-3-phosphate dehydrogenase (Homo sapiens, UniProt P04406).
Data set [9] deals with T4, Bcl-2-related protein A1 (Mus musculus, UniProt Q07440).
T4 sequence (Q07440 whole entry): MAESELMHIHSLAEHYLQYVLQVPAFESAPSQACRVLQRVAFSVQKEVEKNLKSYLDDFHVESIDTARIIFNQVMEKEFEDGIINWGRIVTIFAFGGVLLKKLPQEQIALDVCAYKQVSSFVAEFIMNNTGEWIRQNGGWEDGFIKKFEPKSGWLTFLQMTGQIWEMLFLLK
The data set is described as follows: small-molecule antagonists of Bfl-1/BH3 interaction – biochemical, TR-FRET, mouse Bfl-1, confirmation (AID 621).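 Note: TR-FRET binding of GST-Bfl-1 to FITC-labelled Bid peptide via terbium antibody.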

For data set [10], the target named is T4, Bcl-2-related protein A1. The data set is described as follows: Bfl-1 binding inhibitors, SAR follow-up, biochemical, fluorescence polarization (AID 1070).
For data set [11], the system named is Streptococcus sp. 'group A'. The data set is described as follows: Streptococcus pyogenes SK(-)GAS viability under kanamycin – luminescence, BacTiterGlo, confirmation, counter-screen for streptokinase expression inhibitor project, dose response (AID 1900). It is filed as functional, organism-based.
A further data set has as its target T5, Streptokinase A (Streptococcus pyogenes serotype M1, UniProt P10520).
T5 sequence (P10520 whole entry): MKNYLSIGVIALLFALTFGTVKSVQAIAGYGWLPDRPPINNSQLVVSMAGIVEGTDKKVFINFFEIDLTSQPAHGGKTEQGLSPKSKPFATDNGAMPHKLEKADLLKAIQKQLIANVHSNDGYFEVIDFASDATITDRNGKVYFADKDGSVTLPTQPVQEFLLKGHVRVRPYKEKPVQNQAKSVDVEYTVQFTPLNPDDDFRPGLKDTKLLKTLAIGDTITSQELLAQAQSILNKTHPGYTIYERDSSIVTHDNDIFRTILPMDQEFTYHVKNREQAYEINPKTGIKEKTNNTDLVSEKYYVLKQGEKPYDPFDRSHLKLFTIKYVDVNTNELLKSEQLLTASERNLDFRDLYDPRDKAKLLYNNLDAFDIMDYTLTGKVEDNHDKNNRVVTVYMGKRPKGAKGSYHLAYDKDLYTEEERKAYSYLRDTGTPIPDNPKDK
The data set can be described thus: viability-normalized secreted streptokinase activity reduction – plasminogen activation absorbance, OD405, dose response (AID 1914).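 Note: secreted streptokinase activity via plasminogen activation per viability signal from cell pellet.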 It is filed as functional, Streptococcus pyogenes M1 GAS.

The nature of data set [12]: HPDE-C7 pancreatic duct cell viability loss – fluorescence, HTS (AID 430). The settings on record: Homo sapiens. Format: functional, cell-based.
A short description of data set [13]: viability loss of HPDE-C7K cells – cell-based, fluorescence, HTS, primary screen (AID 431). The settings on record: Homo sapiens. It is filed as functional.
In data set [14] the target is T6, Calpain-2 catalytic subunit (Sus scrofa, UniProt P43367).
T6 sequence (P43367 whole entry): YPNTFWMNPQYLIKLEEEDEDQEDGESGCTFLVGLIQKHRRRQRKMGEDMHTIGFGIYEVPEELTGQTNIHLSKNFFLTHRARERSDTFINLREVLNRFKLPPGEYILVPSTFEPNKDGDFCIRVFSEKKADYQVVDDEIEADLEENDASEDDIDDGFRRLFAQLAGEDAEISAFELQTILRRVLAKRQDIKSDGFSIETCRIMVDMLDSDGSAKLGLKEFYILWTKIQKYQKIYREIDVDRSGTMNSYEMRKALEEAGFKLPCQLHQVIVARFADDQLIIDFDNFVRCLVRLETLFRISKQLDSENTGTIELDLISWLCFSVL
The data set is described as follows: m-calpain protease blockers, concentration series – biochemical, fluorogenic peptide substrate, dose response (AID 1420). It is filed as functional.

The subject of a further data set is Streptococcus. The data set is described as follows: GAS UMAA2166 growth inhibition – luminescence, BacTiterGlo, counter-screen for streptokinase expression inhibitor project, dose response (AID 1915).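 Note: potency for reduction of bacterial viability or growth.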 Format: functional, organism-based. (In general: Counterscreens check selectivity or assay interference.)
The target in data set [15] is T7, Ubiquitin-conjugating enzyme E2 N (Homo sapiens, UniProt P61088).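 Note: Dose-response confirmation in a TR-FRET assay detecting UBC13-driven polyubiquitin chain formation, inhibition measured.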
T7 sequence (P61088 whole entry): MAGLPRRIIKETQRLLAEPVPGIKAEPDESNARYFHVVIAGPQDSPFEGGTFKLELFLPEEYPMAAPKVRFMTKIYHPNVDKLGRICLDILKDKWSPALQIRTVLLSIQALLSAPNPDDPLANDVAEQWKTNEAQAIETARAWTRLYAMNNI
Format: functional.

The target in data set [16] is Heat shock protein HSP 90-alpha (Homo sapiens, UniProt P07900). It is filed as functional, organism-based.
In data set [17] the target is Disintegrin and metalloproteinase domain-containing protein 17 (Homo sapiens, UniProt P78536). The data set is described as follows: inhibition of ADAM17 substrate cleavage – biochemical, quenched FRET substrate, counter-screen for ADAM10 exosite inhibitor project, dose response (AID 743253).
Disintegrin and metalloproteinase domain-containing protein 17, sequence (P78536 whole entry, the tested form may be a part): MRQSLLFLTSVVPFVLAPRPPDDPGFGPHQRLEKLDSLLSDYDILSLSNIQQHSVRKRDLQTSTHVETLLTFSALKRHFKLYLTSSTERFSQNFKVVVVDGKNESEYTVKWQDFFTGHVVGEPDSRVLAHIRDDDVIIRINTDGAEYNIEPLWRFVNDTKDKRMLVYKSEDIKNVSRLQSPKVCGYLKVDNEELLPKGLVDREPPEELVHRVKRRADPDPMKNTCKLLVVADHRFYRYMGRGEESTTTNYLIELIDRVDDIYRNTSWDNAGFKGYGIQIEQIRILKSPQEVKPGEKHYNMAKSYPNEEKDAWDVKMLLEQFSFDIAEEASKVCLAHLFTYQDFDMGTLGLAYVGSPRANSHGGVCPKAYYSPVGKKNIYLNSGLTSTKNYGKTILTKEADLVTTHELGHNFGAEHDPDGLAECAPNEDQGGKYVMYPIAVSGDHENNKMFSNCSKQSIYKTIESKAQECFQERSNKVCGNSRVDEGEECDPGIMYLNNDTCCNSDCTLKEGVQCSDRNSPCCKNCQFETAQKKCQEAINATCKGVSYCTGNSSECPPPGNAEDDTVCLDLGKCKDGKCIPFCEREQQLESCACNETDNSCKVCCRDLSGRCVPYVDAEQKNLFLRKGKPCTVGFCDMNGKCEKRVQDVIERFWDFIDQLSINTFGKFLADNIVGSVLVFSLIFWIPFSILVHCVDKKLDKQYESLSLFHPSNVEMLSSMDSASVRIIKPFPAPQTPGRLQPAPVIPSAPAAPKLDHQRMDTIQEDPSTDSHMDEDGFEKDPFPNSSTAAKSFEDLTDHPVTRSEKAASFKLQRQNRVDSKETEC

Epstein-Barr nuclear antigen 1, sequence (P03211 whole entry): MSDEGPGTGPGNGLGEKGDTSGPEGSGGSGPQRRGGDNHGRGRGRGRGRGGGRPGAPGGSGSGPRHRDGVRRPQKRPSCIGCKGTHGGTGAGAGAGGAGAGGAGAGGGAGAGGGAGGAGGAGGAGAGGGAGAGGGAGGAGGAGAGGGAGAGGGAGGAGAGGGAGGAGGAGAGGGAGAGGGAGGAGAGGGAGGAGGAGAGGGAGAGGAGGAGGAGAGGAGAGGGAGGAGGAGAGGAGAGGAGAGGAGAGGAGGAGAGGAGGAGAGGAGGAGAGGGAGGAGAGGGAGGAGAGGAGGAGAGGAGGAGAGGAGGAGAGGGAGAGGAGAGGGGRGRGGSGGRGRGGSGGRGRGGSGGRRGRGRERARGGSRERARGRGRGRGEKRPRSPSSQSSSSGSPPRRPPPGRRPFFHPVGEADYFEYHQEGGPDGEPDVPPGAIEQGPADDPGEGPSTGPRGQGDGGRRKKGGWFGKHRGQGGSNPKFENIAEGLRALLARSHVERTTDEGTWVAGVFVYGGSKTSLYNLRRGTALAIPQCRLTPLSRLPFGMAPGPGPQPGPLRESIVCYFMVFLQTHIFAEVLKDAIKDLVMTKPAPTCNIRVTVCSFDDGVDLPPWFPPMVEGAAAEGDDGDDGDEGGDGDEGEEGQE
Cytochrome P450 2C19, sequence (P33261 whole entry): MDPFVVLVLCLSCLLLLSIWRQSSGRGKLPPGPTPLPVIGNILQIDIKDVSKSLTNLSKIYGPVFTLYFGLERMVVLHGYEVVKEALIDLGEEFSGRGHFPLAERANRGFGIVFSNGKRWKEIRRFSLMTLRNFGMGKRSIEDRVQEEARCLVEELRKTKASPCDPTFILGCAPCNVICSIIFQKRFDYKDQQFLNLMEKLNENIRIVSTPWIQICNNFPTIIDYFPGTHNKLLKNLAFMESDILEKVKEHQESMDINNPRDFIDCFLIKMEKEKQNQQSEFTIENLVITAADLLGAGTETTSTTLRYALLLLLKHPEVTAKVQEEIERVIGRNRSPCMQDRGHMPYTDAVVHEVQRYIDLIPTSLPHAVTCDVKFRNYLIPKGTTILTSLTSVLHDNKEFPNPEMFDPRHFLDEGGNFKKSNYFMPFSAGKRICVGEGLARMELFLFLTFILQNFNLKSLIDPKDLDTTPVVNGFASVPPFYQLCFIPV
Lytic switch protein BZLF1, sequence (P03206 whole entry): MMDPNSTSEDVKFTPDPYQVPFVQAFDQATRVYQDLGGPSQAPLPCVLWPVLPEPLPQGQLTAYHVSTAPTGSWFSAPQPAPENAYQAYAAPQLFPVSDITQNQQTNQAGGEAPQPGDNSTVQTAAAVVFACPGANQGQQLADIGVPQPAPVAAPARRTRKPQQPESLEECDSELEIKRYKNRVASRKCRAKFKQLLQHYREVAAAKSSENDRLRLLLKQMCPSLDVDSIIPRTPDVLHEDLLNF
Cytochrome P450 2C9, sequence (P11712 whole entry): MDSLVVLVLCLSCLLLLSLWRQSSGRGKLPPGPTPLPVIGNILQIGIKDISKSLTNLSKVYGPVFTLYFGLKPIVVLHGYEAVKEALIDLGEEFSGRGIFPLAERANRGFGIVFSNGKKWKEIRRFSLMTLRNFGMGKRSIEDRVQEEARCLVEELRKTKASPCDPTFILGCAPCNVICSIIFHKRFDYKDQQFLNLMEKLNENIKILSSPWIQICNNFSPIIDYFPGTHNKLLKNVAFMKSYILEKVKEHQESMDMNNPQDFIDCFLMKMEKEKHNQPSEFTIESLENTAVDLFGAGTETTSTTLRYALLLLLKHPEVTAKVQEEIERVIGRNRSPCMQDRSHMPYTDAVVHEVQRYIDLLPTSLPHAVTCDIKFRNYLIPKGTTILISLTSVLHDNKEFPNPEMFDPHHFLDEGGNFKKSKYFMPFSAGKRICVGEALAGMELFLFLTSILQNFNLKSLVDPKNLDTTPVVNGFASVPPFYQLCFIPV
Glyceraldehyde-3-phosphate dehydrogenase, sequence (P04406 whole entry): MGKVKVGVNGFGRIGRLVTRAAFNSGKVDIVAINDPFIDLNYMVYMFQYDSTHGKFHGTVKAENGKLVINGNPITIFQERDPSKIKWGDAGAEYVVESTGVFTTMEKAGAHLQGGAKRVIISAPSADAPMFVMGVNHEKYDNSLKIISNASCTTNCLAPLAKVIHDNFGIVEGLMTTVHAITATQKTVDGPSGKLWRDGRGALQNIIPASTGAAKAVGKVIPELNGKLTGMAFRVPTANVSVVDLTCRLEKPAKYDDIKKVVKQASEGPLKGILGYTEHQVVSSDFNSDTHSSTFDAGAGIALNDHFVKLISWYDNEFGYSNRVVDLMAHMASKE
Cytochrome P450 3A4, sequence (P08684 whole entry): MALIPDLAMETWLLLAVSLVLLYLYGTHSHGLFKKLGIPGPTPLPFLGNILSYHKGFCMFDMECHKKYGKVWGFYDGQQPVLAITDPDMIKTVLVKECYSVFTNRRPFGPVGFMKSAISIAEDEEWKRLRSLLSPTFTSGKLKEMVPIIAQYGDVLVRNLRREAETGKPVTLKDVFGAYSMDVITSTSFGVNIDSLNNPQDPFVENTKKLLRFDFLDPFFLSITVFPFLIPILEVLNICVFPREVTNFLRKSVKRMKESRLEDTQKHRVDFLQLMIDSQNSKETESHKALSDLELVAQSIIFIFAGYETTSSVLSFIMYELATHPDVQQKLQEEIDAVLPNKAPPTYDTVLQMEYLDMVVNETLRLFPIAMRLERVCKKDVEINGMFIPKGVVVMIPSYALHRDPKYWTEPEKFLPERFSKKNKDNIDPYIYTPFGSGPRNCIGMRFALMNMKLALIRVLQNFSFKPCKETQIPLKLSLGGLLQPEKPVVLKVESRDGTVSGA
Nonstructural protein 1, sequence (Q194T2 whole entry): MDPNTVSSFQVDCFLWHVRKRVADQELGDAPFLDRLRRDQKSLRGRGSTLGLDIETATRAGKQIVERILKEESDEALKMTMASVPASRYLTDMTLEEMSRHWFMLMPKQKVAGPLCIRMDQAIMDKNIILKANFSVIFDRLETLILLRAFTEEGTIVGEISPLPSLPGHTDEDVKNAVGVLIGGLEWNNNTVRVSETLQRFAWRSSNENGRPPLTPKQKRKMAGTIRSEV

The IC50 is the midpoint of a concentration-inhibition curve. Regarding `Nc1ccccc1SCC(=O)Nc1nc(-c2ccccc2)cs1`, the IC50 in data set [1] was > 100 µM (active); in data set [2], > 80 µM (inactive).

For `NS(=O)(=O)c1ccc(NC(=S)NC(=O)c2ccc3c(c2)OCO3)cc1`, the IC50 in data set [3] is listed as 19.5 µM (not active); in [4], 33.3 µM (not active).

What is called EC50 is the concentration at which the effect is half-maximal. One may read the AC50 as the concentration giving half of the maximal activity seen. Regarding `CC(=O)NC(c1ccccc1)c1cc([N+](=O)[O-])c2cccnc2c1O` (stereo not given), the EC50 in data set [5] was > 100 µM (active). The AC50 in data set [6] was 1.69 µM (active). The IC50 on Nonstructural protein 1 was 5.52 µM (active).

On to `CCCCC(=O)NNC(=S)NC(=O)c1cccc([N+](=O)[O-])c1`, for which the IC50 on Leucine aminopeptidase was 49.1 µM (active); in data set [7], > 50 µM (not active). For the same compound, the AC50 at Cytochrome P450 2C19 is 15.8 µM (inconclusive); on Cytochrome P450 1A2, 22.4 µM (inconclusive); at Cytochrome P450 3A4, “inconclusive”.

For the compound `CCc1nnc(NC(=O)CSc2nc3cc4c(cc3cc2C)OCCO4)s1`, the IC50 in data set [3] was 5.82 µM (active); in data set [4], > 111 µM (not active). In addition, the values for the AC50 on Cytochrome P450 2C19, on Cytochrome P450 1A2 and at Cytochrome P450 2C9 were 6.31 µM (inconclusive), 1.58 µM (inconclusive) and 0.398 µM (inconclusive), respectively.

With `CCN1CCN(C2=C(Cl)C(=O)N(c3ccc(Cl)nc3)C2=O)CC1`, the IC50 in data set [8] is > 100 µM (not active); at Bcl-2-related protein A1 [9] it was 20.8 µM (active); at Bcl-2-related protein A1 [10] it was 15 µM (active).

In the case of `CCCC(=O)C1=C(NCCc2c(C)[nH]c3ccc(C)cc23)CCCC1=O`, the IC50 in [1] was > 100 µM (active).

Take `C=C(C)COc1ccc(-c2n[nH]cc2Oc2cccc(OC)c2)c(O)c1`: the EC50 is 8.18 µM (active) in data set [11]; > 150 µM (not active) at Streptokinase A; 8.77 µM (active) in [12]; 7.54 µM (active) in data set [13]; 10 µM (active) with Streptococcus. The results for the IC50 in data set [14], in data set [15] and in [17] were 7.92 µM (not active), > 20 µM (inactive) and > 69.5 µM (inactive), respectively. Also, the AC50 in [16] was 7.54 µM (active).
